Laboratory results from patent US9233978B2, “6-fused heteroaryldihydropyrimidines for the treatment and prophylaxis of hepatitis B virus infection” (Hoffmann-La Roche Inc., priority 2014, dated 2016).
In brackets after ≈: the same amount, converted by molar mass. Where two headings read alike, the source gives them in different places.

Assays:
[1] = tested on: HBV; assay: Anti-HBV activity in vitro, HepG2.2.15 cells, extracellular HBV DNA by qPCR; assay type: cell-based
How it was run: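 Extracellular HBV DNA in culture supernatant was measured by qPCR after nucleic acid extraction. The supernatant came from constitutively replicating HepG2.2.15 cells exposed for five days to half-log-diluted compounds, with DMSO at 0.5% final. Cells had been plated overnight at 37 °C beforehand.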

[2] = tested on: HepDE19 cells; assay: Cytotoxicity in HepDE19 cells (CCK-8) and selectivity index; assay type: cell-based; details: CC50 (HepDE19) value / EC50 (HepG2.2.15) value
How it was run: (§1)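 HepDE19 cells (DMEM-F12, 10% FBS) were treated with compound for five days, then given CCK-8 for 2 h at 37 °C and read at OD450 and OD630. CC50 is the concentration killing 50% of host cells. Selectivity index is CC50/EC50.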

[3] = as above; assay type: cell-based; details: human, HepDE19 cells; CCK-8 cell viability; five days after treatment
How it was run: as §1

[4] = tested on: CYP3A4; assay: Cytochrome P450 induction screening assay, mRNA induction in human cryopreserved hepatocytes; assay type: in vitro ADME; details: CYP3A4 mRNA relative induction, 24 hours, test compound up to 10 μM
Description: Human cryopreserved hepatocytes (Life Technologies, Carlsbad, USA) were thawed and cultured in collagen I coated 96-well plates with a density of 52,000 cells/well. After attachment, medium was changed and cells were pre-cultured overnight in hepatocyte maintenance medium (HMM; Lonza, Switzerland).
Test compounds were dosed to the cells next morning at an indicated concentration (up to 10 μM) in HMM culture media containing gentamycin and a constant 0.1% DMSO. Similarly, dilutions of the positive inducer compounds omeprazole (prototypical inducer of human CYP1A2; final concentrations: 1 and 10 μM), phenobarbital (prototypical inducer of human CYP2B6; final concentrations: 100 and 1000 μM) and rifampicin (prototypical inducer of human CYP3A4; final concentrations: 1 and 10 μM) were prepared from 1000 fold DMSO stock solutions in HMM containing gentamycin. Medium change was then performed and cells were exposed for 24 hours to test compounds, positive inducer compounds, or vehicle (0.1% DMSO), respectively.
At the end of the compound exposure period, medium was removed and cells lysed using 100 μL/well MagNA Pure LC RNA isolation tissue lysis buffer (Roche Diagnostics AG, Rotkreuz, Switzerland). Plates were then sealed and frozen at −80° C. until further workup.
mRNA isolation was performed using the MagNA Pure 96 system (Roche Diagnostics AG, Rotkreuz, Switzerland) and the respective cellular RNA large volume kit (Roche Diagnostics AG, Rotkreuz, Switzerland) from thawed samples diluted 1:1 with PBS. The volume of the cell lysis and an elution volume of 100 μL were used. 20 μl of the resulting mRNA suspension was then used for reverse transcription using 20 μl of the transcript or first stand cDNA synthesis kit (Roche prime Supply, Mannheim, Germany). The resulting cDNA was diluted with 40 μl of H2O before using for qRT-PCR. qRT-PCR was performed by using the forward and the reverse primer, the corresponding UPL (all from Microsynth, Balgach, Switzerland) and the Taqman Fast advanced master mix (Applied Biosystems), on an ABI 7900 machine (Applied Biosystems).
qRT-PCR Ct-values for the respective P450s were put into relation to the Ct-value of RN18S1 (microsynth, Balgach, Switzerland) of the same sample. Doing so, a respective Δct-value was calculated. Using the average of all Δct-values for the vehicle control samples, a ΔΔct-value was calculated for each sample (ΔΔct-value(sample)=Δct-value(sample)−average of Δct-value of all vehicle controls). The fold induction of the respective sample was calculated as 2^(−ΔΔct). The individual fold induction values were then averaged per treatment condition (usually n=3 biological replicates).
Relative induction values to the respective positive inducer compound condition (10 μM omeprazole for CYP1A2; 1000 μM Phenobarbital for CYP2B6; 10 μM rifampicin for CYP3A4) were then calculated from the fold induction values as follows: Relative induction (%)=100×(T−V)/(P−V)

[5] = Human microsomal metabolic stability; assay type: in vitro ADME; details: human microsomes 0.5 mg/mL, 1 μM test compound, NADPH, 37° C., pH 7.4, 0-30 minutes
How it was run: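 1 μM compound with 0.5 mg/mL human liver microsomal protein in 100 mM phosphate pH 7.4 at 37° C, started with 1 mM NADPH or a NADPH-regenerating system. Sampled at 0–30 min, quenched in cold methanol with tolbutamide internal standard; remaining parent quantified by LC-MS/MS.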

[6] = Lysa solubility; assay type: physicochemical; details: 0.05 M phosphate buffer (pH 6.5); for solubility thermodynamic: phosphate buffer, pH 6.5, aqueous buffer, thermodynamic from solid
How it was run: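 Duplicate samples dried from 10 mM DMSO stocks, taken up in 0.05 M phosphate buffer pH 6.5, stirred 1 h, shaken 2 h and left overnight. Filtrate and 1/10 dilution quantified by direct UV or HPLC-UV, in μg/mL; above 80% of the calculated maximum, reported as greater than that value.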

[7] = Hepatitis B virus, HepG2.2.15, 120 h, HepG2.2.15 cells, HBV replication inhibited by 50%, extracellular HBV DNA by qPCR, five days after compound treatment, read-out: EC50

SMILES	EC50 ([1]; Hepatitis B virus, HepG2.2.15, 120 h) [nM]	Selectivity index (CC50/EC50) [2]	CC50 at 5 days [3] [nM]	% of Positive control (10 μM Rifampicin) [4] [%]	Human Microsomal Clearance [5] [mL/min/kg]	EC50 [1, 7] [nM]	solubility thermodynamic [6] [µg/mL]	EC50 ([1]; HepG2.2.15 cells, HBV replication inhibited by 50%, extracellular HBV DNA by qPCR, five days after compound treatment, read-out: EC50) [nM]	Lysa [6] [µg/mL]
CCOC(=O)C1=C(CN2CCN3C(=O)N(C4CC4)C[C@@H]3[C@H]2C(=O)O)NC(c2nccs2)=N[C@H]1c1cccc(F)c1Cl (single isomer, unassigned) [Example 82B]	2	>50000	> 100000	6	2.7	–	–	–	–
COC(=O)C1=C(CN2CCN3C(=O)N(CC4(C(=O)O)CCC4)C[C@@H]3C2)NC(c2nccs2)=N[C@H]1c1ccc(F)cc1Cl [Example 59, (R)-6-[(S)-2-(1-Carboxy-cyclobutylmethyl)-3-oxo-hexahydro-imidazo[1,5-a]pyrazin-7-ylmethyl]-4-(2-chloro-4-fluoro-phenyl)-2-thiazol-2-yl-1,4-dihydro-pyrimidine-5-carboxylic acid methyl ester]	–	>9091	> 100000	2.2	2.3	11	> 685	–	–
CCOC(=O)C1=C(CN2CCN3C(=O)N(CC(C)(C)C(=O)O)C[C@@H]3C2)NC(c2nccs2)=N[C@H]1c1ccc(F)c(F)c1C [Example 22, 3-[(8aS)-7-[[(4S)-4-(3,4-difluoro-2-methyl-phenyl)-5-ethoxycarbonyl-2-thiazol-2-yl-1,4-dihydropyrimidin-6-yl]methyl]-3-oxo-5,6,8,8a-tetrahydro-1H-imidazo[1,5-a]pyrazin-2-yl]-2,2-dimethyl-propanoic acid]	–	>34482	> 100000	0	–	3	–	–	–
CCOC(=O)C1=C(CN2CCN3C(=O)N(CC(C)(C)C(=O)O)C[C@@H]3C2)NC(c2nccs2)=N[C@H]1c1cccc(F)c1C [Example 76, 3-[(8aS)-7-[[(4S)-5-ethoxycarbonyl-4-(3-fluoro-2-methyl-phenyl)-2-thiazol-2-yl-1,4-dihydropyrimidin-6-yl]methyl]-3-oxo-5,6,8,8a-tetrahydro-1H-imidazo[1,5-a]pyrazin-2-yl]-2,2-dimethyl-propanoic acid]	–	>14286	> 100000	1.3	0.8	7	565 (≈ 944 µM)	–	–
COC(=O)C1=C(CN2CCN3C(=O)N(CC4(C(=O)O)CC4)C[C@@H]3C2)NC(c2nccs2)=N[C@H]1c1ccc(F)c(F)c1C [Example 38, 1-[[(8aS)-7-[[(4S)-4-(3,4-difluoro-2-methyl-phenyl)-5-methoxycarbonyl-2-thiazol-2-yl-1,4-dihydropyrimidin-6-yl]methyl]-3-oxo-5,6,8,8a-tetrahydro-1H-imidazo[1,5-a]pyrazin-2-yl]methyl]cyclopropanecarboxylic acid]	–	21276	100000	0.2	2.0	5	627 (≈ 1040 µM)	–	–
COC(=O)C1=C(CN2CCN3C(=O)N(C(C)(C)C)C[C@@H]3[C@H]2C(=O)O)NC(c2nccs2)=N[C@H]1c1ccc(F)cc1Cl (single isomer, unassigned) [Example 86B]	–	>25000	> 100000	11	4.7	4	> 740	–	–
CCOC(=O)C1=C(CN2CCN3C(=O)N(C(C)(C)CC(=O)O)C[C@@H]3C2)NC(c2nccs2)=N[C@H]1c1cccc(F)c1Cl [Example 34, 3-[(8aS)-7-[[(4R)-4-(2-chloro-3-fluoro-phenyl)-5-ethoxycarbonyl-2-thiazol-2-yl-1,4-dihydropyrimidin-6-yl]methyl]-3-oxo-5,6,8,8a-tetrahydro-1H-imidazo[1,5-a]pyrazin-2-yl]-3-methyl-butanoic acid]	–	10655	81000	0.2	1.8	8	326 (≈ 527 µM)	–	–
COC(=O)C1=C(CN2CCN3C(=O)N(C4CCC(C(=O)O)CC4)C[C@@H]3C2)NC(c2nccs2)=N[C@H]1c1ccc(F)cc1Cl (stereo partly drawn) [Example 73, 4-[(8aS)-7-[[(4R)-4-(2-chloro-4-fluoro-phenyl)-5-methoxycarbonyl-2-thiazol-2-yl-1,4-dihydropyrimidin-6-yl]methyl]-3-oxo-5,6,8,8a-tetrahydro-1H-imidazo[1,5-a]pyrazin-2-yl]cyclohexanecarboxylic acid]	–	7778	70000	0	8.1	–	–	9	564
CCOC(=O)C1=C(CN2CCN3C(=O)N(C)C[C@H]3[C@@H]2C(=O)O)NC(c2nccs2)=N[C@H]1c1cccc(F)c1Cl (single isomer, unassigned) [Example 91B]	–	>50000	> 100000	1.7	5.8	2	> 705	–	–
COC(=O)C1=C(CN2CCN3C(=O)N(CC(C)(C)C(=O)O)C[C@@H]3C2)NC(c2nccs2)=N[C@H]1c1ccc(F)cc1Cl [Example 42, 3-[(8aS)-7-[[(4R)-4-(2-chloro-4-fluoro-phenyl)-5-methoxycarbonyl-2-thiazol-2-yl-1,4-dihydropyrimidin-6-yl]methyl]-3-oxo-5,6,8,8a-tetrahydro-1H-imidazo[1,5-a]pyrazin-2-yl]-2,2-dimethyl-propanoic acid]	–	>15625	> 100000	0.6	2.0	6	> 785	–	–
COC(=O)C1=C(CN2CCN3C(=O)N(CC(C)(C)CC(=O)O)C[C@@H]3C2)NC(c2nccs2)=N[C@H]1c1ccc(F)cc1Cl [Example 55, 4-[(8aS)-7-[[(4R)-4-(2-chloro-4-fluoro-phenyl)-5-methoxycarbonyl-2-thiazol-2-yl-1,4-dihydropyrimidin-6-yl]methyl]-3-oxo-5,6,8,8a-tetrahydro-1H-imidazo[1,5-a]pyrazin-2-yl]-3,3-dimethyl-butanoic acid]	–	>20000	> 100000	0.1	–	5	470 (≈ 759 µM)	–	–
CCOC(=O)C1=C(CN2CCN3C(=O)N(C(C)(C)C)C[C@@H]3[C@H]2C(=O)O)NC(c2nccs2)=N[C@H]1c1cccc(F)c1Cl (single isomer, unassigned) [Example 87B]	–	>100000	> 100000	4.0	5.0	1	–	–	–
